Measured values taken from patent US9518166B2, “Film forming auxiliary agent composition for emulsion resin” (ADEKA CORPORATION, priority 2013, dated 2016).

How the values were obtained:
Format in all cases: physicochemical
Boiling point = test: Boiling point
[1] = Test 2: long-term stability test, resin 2; parameters: key: ⊚: homogeneous solution; ◯: no separation, but solution was partially heterogeneous (still can be used); Δ: slight separation was confirmed; X: complete separation or sedimentation was confirmed; conditions: 5 mass % in resin 2, one week at 40° C.
Experimental: (§1) Inventive Products 1 to 14 and Comparative Products 1 to 11 were each compounded at 5 mass % with the test emulsion resins, 80 ml of each product obtained was introduced by 80 ml into a 100-ml screw pipe, closed with a lid and allowed to stay for a week in a thermostat at 40° C. The external appearance of the emulsion resins thereafter was determined according to the following criteria. • ⊚: homogeneous solution • ◯: no separation, but solution was partially heterogeneous (still can be used) • Δ: slight separation was confirmed • X: complete separation or sedimentation was confirmed <Test 3: Water Solubility Confirmation Test>

[2] = Test 2: long-term stability test, resin 1; parameters: key: ⊚: homogeneous solution; ◯: no separation, but solution was partially heterogeneous (still can be used); Δ: slight separation was confirmed; X: complete separation or sedimentation was confirmed; conditions: 5 mass % in resin 1, one week at 40° C.
Experimental: as §1

For `CCCCOCCO` [Comparative Product 10, butyl cellosolve], the boiling point (Boiling point) was 171 °C, the “Test 2: long-term stability, external appearance” value (shortened to “Test 2: long-term stability”) [1] was “⊚” and the “Test 2: long-term stability” value [2] was “⊚”.
For `CN1CCCC1=O` [Comparative Product 11, N-methylpyrrolidone], the boiling point (Boiling point) was 202 °C, the “Test 2: long-term stability” value [1] was “⊚” and the “Test 2: long-term stability” value [2] was “⊚”.
